According to patent US20040024024A1, “Aromatic sulfone hydroxamates and their use as protease inhibitors” (priority 2001, published 2004):

Legend:
Test in all cases: In vitro MMP inhibition, IC50 determination (fluorogenic substrate I)
Type in all cases: biochemical
[1] = molecular target: T1, Human recombinant MMP-1 (Homo sapiens, UniProt P03956)
T1 construct: made in house; host or cells: MMP-1-transfected HT-1080 cells (spent media)
T1 sequence (P03956 100-469): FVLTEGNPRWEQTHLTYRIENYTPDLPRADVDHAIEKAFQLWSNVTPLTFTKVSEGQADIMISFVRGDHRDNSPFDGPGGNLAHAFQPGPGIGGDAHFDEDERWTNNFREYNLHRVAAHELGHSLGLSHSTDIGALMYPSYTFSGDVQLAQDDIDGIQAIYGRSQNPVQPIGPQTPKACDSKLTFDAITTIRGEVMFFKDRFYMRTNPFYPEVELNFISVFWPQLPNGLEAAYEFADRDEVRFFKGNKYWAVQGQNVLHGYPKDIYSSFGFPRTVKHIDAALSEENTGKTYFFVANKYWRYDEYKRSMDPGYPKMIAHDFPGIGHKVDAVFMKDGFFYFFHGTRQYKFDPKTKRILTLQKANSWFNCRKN
Procedure, shortened: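 APMA- or trypsin-activated enzyme, purified from spent media of transfected HT-1080 cells, incubated at room temperature with 4 μM MCA-Pro-Leu-Gly-Leu-Dpa-Ala-Arg-NH2 and graded inhibitor in Tris buffer pH 7.5 (10 mM CaCl2, 0.05% Brij). Cleavage read by fluorescence (ex 328/em 415 nm); IC50 from fluorescence reduction versus inhibitor concentration.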

[2] = molecular target: T2, Human recombinant MMP-2 (Homo sapiens, UniProt P08253)
T2 construct: made in house; host or cells: MMP-2-transfected p2AHT2 cells
T2 sequence (P08253 110-660): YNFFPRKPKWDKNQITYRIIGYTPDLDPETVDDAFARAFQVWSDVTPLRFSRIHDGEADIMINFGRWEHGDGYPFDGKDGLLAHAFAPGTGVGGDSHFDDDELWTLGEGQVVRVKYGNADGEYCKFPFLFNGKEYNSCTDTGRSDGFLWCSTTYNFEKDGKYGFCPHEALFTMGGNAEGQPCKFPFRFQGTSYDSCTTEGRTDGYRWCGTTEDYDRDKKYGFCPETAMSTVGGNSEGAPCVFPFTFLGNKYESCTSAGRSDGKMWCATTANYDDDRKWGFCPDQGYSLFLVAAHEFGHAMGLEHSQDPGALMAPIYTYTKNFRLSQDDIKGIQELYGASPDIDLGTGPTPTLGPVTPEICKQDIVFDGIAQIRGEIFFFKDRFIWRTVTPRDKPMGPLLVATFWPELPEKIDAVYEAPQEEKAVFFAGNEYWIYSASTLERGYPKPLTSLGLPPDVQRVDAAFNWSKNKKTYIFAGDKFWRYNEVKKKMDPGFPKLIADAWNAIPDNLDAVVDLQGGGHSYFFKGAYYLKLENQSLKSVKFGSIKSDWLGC
Procedure, shortened: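 APMA- or trypsin-activated recombinant MMP-2 was incubated at room temperature with serial inhibitor dilutions in Tris buffer pH 7.5 (100 mM NaCl, 10 mM CaCl2, 0.05% Brij), with DMSO from 1% stocks, and 4 μM substrate I. Cleavage was read by fluorescence at 328/415 nm; IC50 was taken from the loss of fluorescence versus inhibitor concentration.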

[3] = molecular target: T3, Human recombinant MMP-9 (Homo sapiens, UniProt P14780)
T3 construct: made in house; host or cells: MMP-9-transfected HT1080 cells (spent media)
T3 sequence (P14780 107-707 limits assumed): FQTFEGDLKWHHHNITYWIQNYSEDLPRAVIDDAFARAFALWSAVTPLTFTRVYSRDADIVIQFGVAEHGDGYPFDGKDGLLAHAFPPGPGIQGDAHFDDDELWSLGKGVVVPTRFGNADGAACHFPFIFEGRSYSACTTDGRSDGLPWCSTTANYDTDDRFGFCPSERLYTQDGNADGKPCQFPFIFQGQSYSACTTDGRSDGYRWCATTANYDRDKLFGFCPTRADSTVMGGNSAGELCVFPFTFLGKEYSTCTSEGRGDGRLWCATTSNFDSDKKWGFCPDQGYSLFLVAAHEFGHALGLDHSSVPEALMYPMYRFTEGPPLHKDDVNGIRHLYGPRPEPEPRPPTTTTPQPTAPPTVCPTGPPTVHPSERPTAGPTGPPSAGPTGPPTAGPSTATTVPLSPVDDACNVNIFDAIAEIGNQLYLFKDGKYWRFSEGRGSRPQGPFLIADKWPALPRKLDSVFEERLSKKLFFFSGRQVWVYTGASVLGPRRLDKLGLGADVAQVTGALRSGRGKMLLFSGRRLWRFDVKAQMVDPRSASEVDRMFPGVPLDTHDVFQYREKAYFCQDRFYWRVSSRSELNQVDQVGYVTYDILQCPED
Procedure, shortened: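 MMP-9 proenzyme purified from transfected HT1080 cell media, activated with APMA or trypsin. Compound dilutions in pH 7.5 Tris/NaCl/CaCl2 buffer with 0.05% polyoxyethylene 23 lauryl ether, incubated at room temperature with 4 μM MCA/Dpa substrate I. IC50 from fluorescence loss (ex 328, em 415 nm) versus inhibitor concentration.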

[4] = molecular target: T4, Human recombinant MMP-13 (Homo sapiens, UniProt P45452)
T4 construct: made in house; host or cells: baculovirus / insect cells
Procedure, shortened: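 Fluorescence at 415 nm (excitation 328 nm) reports Gly-Leu cleavage of 4 μM quenched methoxycoumarin peptide substrate I. Human recombinant MMP-13, activated by trypsin or APMA, was incubated at room temperature with varied inhibitor concentrations in pH 7.5 Tris/NaCl/CaCl2 buffer; IC50 derived from reduced fluorescence.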

[5] = molecular target: T5, Human recombinant MMP-14 (Homo sapiens, UniProt P50281)
T5 construct: The catalytic domain enzyme was expressed in E. coli inclusion bodies, solubilized in urea; made in house
Procedure, shortened: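 Catalytic-domain MMP-14, expressed in E. coli and refolded, activated with APMA or trypsin; compounds incubated at room temperature with 4 μM fluorogenic substrate I (MCA-PLGL-Dpa-AR-NH2) in Tris/NaCl/CaCl2 buffer, pH 7.5. Fluorescence at ex 328/em 415 nm; IC50 from loss of fluorescence versus inhibitor concentration.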

[6] = value outside parentheses (Ki in parenthesis)

SMILES | IC50 ([1]; value outside parenthesis) | IC50 ([2]; value outside parenthesis) | IC50 ([3]; value outside parenthesis) | IC50 ([4]; value outside parenthesis) | IC50 ([5]; value outside parenthesis) | IC50 [1, 6] | IC50 [2, 6] | IC50 [3, 6] | IC50 [4, 6] | IC50 [5, 6]
CCOc1ccc2nc(SCCCOc3ccc(S(=O)(=O)C4(C(=O)NO)CCOCC4)cc3)sc2c1 [Example 287] | > 10 µM | 3.6 nM | 16.4 nM | 0.8 nM | > 10 µM |  |  |  |  | 
O=C(NO)C1(S(=O)(=O)c2ccc(OCCCSc3nc4ccccc4s3)cc2)CCOCC1 [Example 288] | > 10 µM | 2.3 nM | 10.6 nM | 0.8 nM | > 10 µM |  |  |  |  | 
CN(CCCOc1ccc(S(=O)(=O)C2(C(=O)NO)CCOCC2)cc1)C(=O)c1ccc2ccccc2c1 [Example 289] | > 10 µM | 2720 nM | > 10000 nM | 10.1 nM | > 10 µM |  |  |  |  | 
CN(CCc1ccccc1)S(=O)(=O)CCCOc1ccc(S(=O)(=O)C2(C(=O)NO)CCOCC2)cc1 [Example 292] |  |  |  |  |  | 0.97 µM | 14.4 nM | 163 nM | 2.4 nM | > 10 µM
O=C(NO)C1(S(=O)(=O)c2ccc(OCCCS(=O)(=O)C3CCCCC3)cc2)CCOCC1 [Example 293] |  |  |  |  |  | 6.15 µM | 2.3 nM | 448 nM | 2.6 nM | > 10 µM
Cc1cc(-c2nnc(CCCOc3ccc(S(=O)(=O)C4(C(=O)NO)CCOCC4)cc3)o2)ccc1OC(C)C [Example 294] |  |  |  |  |  | 4.62 µM | 100 nM | 448 nM | 4.3 nM | > 10 µM
CCCC(=O)C(C)CCOc1ccc(S(=O)(=O)C2(C(=O)NO)CCOCC2)cc1 (stereo not drawn) [Example 295] |  |  |  |  |  | > 10 µM | 15.6 nM | 172 nM | 2.6 nM | > 10 µM
O=C(CCCOc1ccc(S(=O)(=O)C2(C(=O)NO)CCOCC2)cc1)c1cccs1 [Example 297] |  |  |  |  |  | 6.81 µM | 8.1 nM | 64.6 nM | 0.5 nM | 6.56 µM
COc1ccc(CC(=O)CCCOc2ccc(S(=O)(=O)C3(C(=O)NO)CCOCC3)cc2)cc1 [Example 301] |  |  |  |  |  | 3.66 µM | 0.2 nM | 9.1 nM | < 0.1 nM | 0.32 µM
O=C(CCCOc1ccc(S(=O)(=O)C2(C(=O)NO)CCOCC2)cc1)Cc1ccc(Cl)cc1 [Example 302] |  |  |  |  |  | 2.73 µM | 0.2 nM | 2.9 nM | 0.1 nM | 0.0949 µM
COc1ccc(C(=O)C(C)CCOc2ccc(S(=O)(=O)C3(C(=O)NO)CCOCC3)cc2)cc1 (stereo not drawn) [Example 306] |  |  |  |  |  | > 10 µM | 92.9 nM | 185 nM | 1.7 nM | > 10 µM
N#Cc1ccc(N2CCN(CCCOc3ccc(S(=O)(=O)C4(C(=O)NO)CCOCC4)cc3)C2=O)cc1 [Example 307] |  |  |  |  |  | 8.13 µM | 135 nM | 139 nM | 4.5 nM | > 10 µM
C[C@@H]1[C@H](c2ccccc2)OC(=O)N1CCCOc1ccc(S(=O)(=O)C2(C(=O)NO)CCOCC2)cc1 [Example 308] |  |  |  |  |  | > 10 µM | 176 nM | 1600 nM | 3.7 nM | > 10 µM
C[C@H]1[C@@H](c2ccccc2)OC(=O)N1CCCOc1ccc(S(=O)(=O)C2(C(=O)NO)CCOCC2)cc1 [Example 309] |  |  |  |  |  | > 10 µM | 135 nM | 1560 nM | 1.8 nM | > 10 µM
CC(C)(C)C1CCN(S(=O)(=O)CCCOc2ccc(S(=O)(=O)C3(C(=O)NO)CCOCC3)cc2)CC1 [Example 310] |  |  |  |  |  | > 10 µM | 32 nM | 1980 nM | 3 nM | > 10 µM
